Where two headings read alike, the source gives them in different places.
What was measured:
[1] = cited from earlier work
[2] = Surfactant solubility in HFO-1234ze (E) propellant; assay type: physicochemical

FCC(F)(F)F [HFA-134a, 1,1,1,2-Tetrafluoroethane]
Liquid Density at 20° C. [1]: 1.21 g/mL | Vapor Pressure at 20° C. [1]: 83.0 psi | Viscosity at 20° C. [1]: 0.20 cP | Water solubility ([1]; at 25° C.): 1100 at 25 °C ppm

FC(C(F)(F)F)C(F)(F)F [HFA-227, 1,1,1,2,3,3,3-Heptafluoropropane]
Liquid Density at 20° C. [1]: 1.41 g/mL | Vapor Pressure at 20° C. [1]: 56.6 psi | Viscosity at 20° C. [1]: 0.26 cP | Water solubility ([1]; at 25° C.): 610 at 25 °C ppm

F/C=C/C(F)(F)F [HFO-1234ze(E), Trans-1,3,3,3-Tetrafluoropropene]
Liquid Density at 20° C. [1]: 1.19 g/mL | Vapor Pressure at 20° C. [1]: 46.4 psi | Viscosity at 20° C. [1]: 0.19 cP | Water solubility ([1]; at 20° C.): 225 at 20 °C ppm

polyethylene glycol 1000 [PEG 1000]
Solubility of surfactant in HFO-1234ze (E) [2]: exhibited certain solubility in HFO-1234ze (E) and showed homogenous phase

polyoxyethylene (20) sorbitan monolaurate [polysorbate 20]
Solubility of surfactant in HFO-1234ze (E) ([2]; in HFO-1234ze (E) propellant): exhibited certain solubility in HFO-1234ze (E) and showed homogenous phase

polyoxyethylene (20) sorbitan monooleate [polysorbate 80]
Solubility of surfactant in HFO-1234ze (E) [2]: exhibited certain solubility in HFO-1234ze (E) and showed homogenous phase

polyvinylpyrrolidone K25 [PVP K25]
Solubility of surfactant in HFO-1234ze (E) [2]: exhibited certain solubility in HFO-1234ze (E) and showed homogenous phase

sorbitan trioleate [span 85]
Solubility of surfactant in HFO-1234ze (E) [2]: exhibited certain solubility in HFO-1234ze (E) and showed homogenous phase
